Tests used:
Assay in all cases: cells
HCE-T = assay type: functional, cell-based; conditions: Homo sapiens;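 also: cell viability assay read-out, reporting inhibition of HCE-T cell growth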
Description: SANGER: Inhibition of human HCE-T cell growth in a cell viability assay.

CAS-1 = assay type: functional, cell-based; conditions: Homo sapiens;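 also: growth inhibition of CAS-1 cells, measured with a cell viability assay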
Description: SANGER: Inhibition of human CAS-1 cell growth in a cell viability assay.

NCI-H1304 = assay type: functional, cell-based; conditions: Homo sapiens;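 also: growth inhibition of the cancer cell line, measured in a cell viability assay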
Description: SANGER: Inhibition of human NCI-H1304 cell growth in a cell viability assay.

EW-13 = assay type: functional, cell-based; conditions: Homo sapiens;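 also: growth inhibition of EW-13 cells, read out with a cell viability assay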
Description: SANGER: Inhibition of human EW-13 cell growth in a cell viability assay.

SF-539 = assay type: functional, cell-based; conditions: Homo sapiens;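 also: Read-out is a cell viability assay, with IC50 reflecting inhibition of cell growth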
Description: SANGER: Inhibition of human SF539 cell growth in a cell viability assay.

CTV-1 = assay type: functional, cell-based; conditions: Homo sapiens;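 also: growth inhibition of the cell line, read out with a cell viability assay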
Description: SANGER: Inhibition of human CTV-1 cell growth in a cell viability assay.

LB2518-MEL = assay type: functional, cell-based; conditions: Homo sapiens;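 also: growth inhibition of human LB2518-MEL cells, measured with a cell viability assay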
Description: SANGER: Inhibition of human LB2518-MEL cell growth in a cell viability assay.

IST-SL1 = assay type: functional, cell-based; conditions: Homo sapiens;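 also: growth inhibition of human IST-SL1 cells, read out with a cell viability assay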
Description: SANGER: Inhibition of human IST-SL1 cell growth in a cell viability assay.

KARPAS-45 = assay type: functional, cell-based; conditions: Homo sapiens;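 also: inhibition of cell line growth, read out through a viability assay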
Description: SANGER: Inhibition of human KARPAS-45 cell growth in a cell viability assay.

SNB-75 = assay type: functional, cell-based; conditions: Homo sapiens;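 also: cell viability assay measuring growth inhibition of human SNB-75 cells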
Description: SANGER: Inhibition of human SNB75 cell growth in a cell viability assay.

NOMO-1 = assay type: functional, cell-based; conditions: Homo sapiens;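 also: growth inhibition of human NOMO-1 cells measured by a cell viability assay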
Description: SANGER: Inhibition of human NOMO-1 cell growth in a cell viability assay.

DOHH-2 = assay type: functional, cell-based; conditions: Homo sapiens;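 also: growth inhibition of human DOHH-2 cells, read out with a cell viability assay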
Description: SANGER: Inhibition of human DOHH-2 cell growth in a cell viability assay.

LB2241-RCC = assay type: functional, cell-based; conditions: Homo sapiens;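 also: cell viability assay measuring how strongly the cultured human renal carcinoma line is prevented from growing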
Description: SANGER: Inhibition of human LB2241-RCC cell growth in a cell viability assay.

CAL-12T = assay type: functional, cell-based, Homo sapiens; conditions: Homo sapiens, CAL-12T;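 also: growth inhibition of human CAL-12T cells, read out with a cell viability assay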
Description: SANGER: Inhibition of human CAL-12T cell growth in a cell viability assay.

ES5 = assay type: functional, cell-based; conditions: Homo sapiens;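 also: growth inhibition of human ES5 cells, read out by a cell viability assay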
Description: SANGER: Inhibition of human ES5 cell growth in a cell viability assay.

SCC-15 = assay type: functional, cell-based; conditions: Homo sapiens;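 also: growth inhibition of SCC-15 cells, read out with a cell viability assay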
Description: SANGER: Inhibition of human SCC-15 cell growth in a cell viability assay.

COLO-792 = assay type: functional, cell-based; conditions: Homo sapiens
Description: SANGER: Inhibition of human COLO-792 cell growth in a cell viability assay.

MZ2-MEL = assay type: functional, cell-based; conditions: Homo sapiens;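 also: growth inhibition of MZ2-MEL cells read out with a cell viability assay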
Description: SANGER: Inhibition of human MZ2-MEL cell growth in a cell viability assay.

ETK-1 = assay type: functional, cell-based; conditions: Homo sapiens;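 also: growth inhibition of human ETK-1 cells, read out with a cell viability assay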
Description: SANGER: Inhibition of human ETK-1 cell growth in a cell viability assay.

MFM-223 = assay type: functional, cell-based; conditions: Homo sapiens
Description: SANGER: Inhibition of human MFM-223 cell growth in a cell viability assay.

TE-6 = assay type: functional, cell-based; conditions: Homo sapiens;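 also: growth inhibition of TE-6 cells, read out with a cell viability assay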
Description: SANGER: Inhibition of human TE-6 cell growth in a cell viability assay.

RS4-11 = assay type: functional, cell-based; conditions: Homo sapiens;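 also: growth inhibition of RS4-11 cells, read out by a cell viability assay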
Description: SANGER: Inhibition of human RS4-11 cell growth in a cell viability assay.

SW 954 = assay type: functional, cell-based; conditions: Homo sapiens;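 also: growth inhibition of SW954 human cancer cells, read out as cell viability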
Description: SANGER: Inhibition of human SW954 cell growth in a cell viability assay.

OCI-AML2 = assay type: functional, cell-based; conditions: Homo sapiens;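 also: growth inhibition of OCI-AML2 cells, read out with a cell viability assay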
Description: SANGER: Inhibition of human OCI-AML2 cell growth in a cell viability assay.

SH-4 = assay type: functional, cell-based; conditions: Homo sapiens;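 also: growth inhibition of SH-4 cells, read out with a cell viability assay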
Description: SANGER: Inhibition of human SH-4 cell growth in a cell viability assay.

ML-2 = assay type: functional, cell-based; conditions: Homo sapiens;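 also: growth inhibition of ML-2 cells, measured with a cell viability readout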
Description: SANGER: Inhibition of human ML-2 cell growth in a cell viability assay.

CA46 = assay type: functional, cell-based; conditions: Homo sapiens;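 also: growth inhibition of human CA46 cells, read out by a cell viability assay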
Description: SANGER: Inhibition of human CA46 cell growth in a cell viability assay.

LS-123 = assay type: functional, cell-based; conditions: Homo sapiens
Description: SANGER: Inhibition of human LS-123 cell growth in a cell viability assay.

SK-N-FI = assay type: functional, cell-based; conditions: Homo sapiens;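 also: cell viability assay measuring growth inhibition of human SK-N-FI cells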
Description: SANGER: Inhibition of human SK-N-FI cell growth in a cell viability assay.

HCE-4 = assay type: functional, cell-based; conditions: Homo sapiens;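 also: cell viability assay measuring inhibition of growth in the human HCE-4 cell line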
Description: SANGER: Inhibition of human HCE-4 cell growth in a cell viability assay.

LOUCY = assay type: functional, cell-based; conditions: Homo sapiens;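 also: growth inhibition of human LOUCY cells, read out with a cell viability assay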
Description: SANGER: Inhibition of human LOUCY cell growth in a cell viability assay.

DMS-79 = assay type: functional, cell-based; conditions: Homo sapiens;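 also: growth inhibition measured with a cell viability assay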
Description: SANGER: Inhibition of human DMS-79 cell growth in a cell viability assay.

KMOE-2 = assay type: functional, cell-based; conditions: Homo sapiens;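 also: growth inhibition of human KMOE-2 cells, read out with a cell viability assay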
Description: SANGER: Inhibition of human KMOE-2 cell growth in a cell viability assay.

Ramos-2G6-4C10 = assay type: functional, cell-based; conditions: Homo sapiens;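 also: growth inhibition of the cell line, measured by a cell viability read-out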
Description: SANGER: Inhibition of human Ramos-2G6-4C10 cell growth in a cell viability assay.

NEC8 = assay type: functional, cell-based; conditions: Homo sapiens;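 also: growth inhibition of human NEC8 cells, read out by a cell viability assay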
Description: SANGER: Inhibition of human NEC8 cell growth in a cell viability assay.

OS-RC-2 = assay type: functional, cell-based; conditions: Homo sapiens;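 also: growth inhibition of human OS-RC-2 cells, measured by a cell viability assay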
Description: SANGER: Inhibition of human OS-RC-2 cell growth in a cell viability assay.

KG-1 = assay type: functional, cell-based; conditions: Homo sapiens;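 also: growth inhibition of KG-1 cells, read out by a cell viability assay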
Description: SANGER: Inhibition of human KG-1 cell growth in a cell viability assay.

TE-9 = assay type: functional, cell-based; conditions: Homo sapiens;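 also: cell growth inhibition, measured with a cell viability readout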
Description: SANGER: Inhibition of human TE-9 cell growth in a cell viability assay.

HT-144 = assay type: functional, cell-based; conditions: Homo sapiens
Description: SANGER: Inhibition of human HT-144 cell growth in a cell viability assay.

KM12 = assay type: functional, cell-based; conditions: Homo sapiens;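 also: KM12 cell growth inhibition, read out with a cell viability assay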
Description: SANGER: Inhibition of human KM12 cell growth in a cell viability assay.

GAK = assay type: functional, cell-based; conditions: Homo sapiens;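 also: cell growth inhibition read out by a cell viability assay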
Description: SANGER: Inhibition of human GAK cell growth in a cell viability assay.

NCI-H2228 = assay type: functional, cell-based; conditions: Homo sapiens;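 also: growth inhibition of human NCI-H2228 cells, read out by a cell viability assay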
Description: SANGER: Inhibition of human NCI-H2228 cell growth in a cell viability assay.

GB-1 = assay type: functional, cell-based; conditions: Homo sapiens;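 also: growth of GB-1 cells judged by a viability assay, IC50 marks the concentration inhibiting growth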
Description: SANGER: Inhibition of human GB-1 cell growth in a cell viability assay.

HH = assay type: functional, cell-based; conditions: Homo sapiens
Description: SANGER: Inhibition of human HH cell growth in a cell viability assay.

HD-MY-Z = assay type: functional, cell-based; conditions: Homo sapiens;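 also: growth inhibition of HD-MY-Z cells, read out with a cell viability assay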
Description: SANGER: Inhibition of human HD-MY-Z cell growth in a cell viability assay.

P30-OHK = assay type: functional, cell-based; conditions: Homo sapiens;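 also: growth inhibition of the P30-OHK cell line, read out with a cell viability assay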
Description: SANGER: Inhibition of human P30-OHK cell growth in a cell viability assay.

C-33-A = assay type: functional, cell-based; conditions: Homo sapiens;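 also: cell viability assay measuring growth inhibition of C-33-A cells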
Description: SANGER: Inhibition of human C-33-A cell growth in a cell viability assay.

GR-ST = assay type: functional, cell-based; conditions: Homo sapiens
Description: SANGER: Inhibition of human GR-ST cell growth in a cell viability assay.

UACC-257 = assay type: functional, cell-based; conditions: Homo sapiens
Description: SANGER: Inhibition of human UACC-257 cell growth in a cell viability assay.

DB = assay type: functional, cell-based; conditions: Homo sapiens
Description: SANGER: Inhibition of human DB cell growth in a cell viability assay.

Detroit 562 = assay type: functional, cell-based; conditions: Homo sapiens;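 also: growth inhibition of human Detroit 562 cells, read out by a cell viability assay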
Description: SANGER: Inhibition of human Detroit562 cell growth in a cell viability assay.

MOLT-4 = assay type: functional, cell-based; conditions: Homo sapiens;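 also: growth inhibition of MOLT-4 cells, determined with a cell viability readout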
Description: SANGER: Inhibition of human MOLT-4 cell growth in a cell viability assay.

KNS-81-FD = assay type: functional, cell-based; conditions: Homo sapiens;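 also: growth inhibition of KNS-81-FD cells, read out with a cell viability assay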
Description: SANGER: Inhibition of human KNS-81-FD cell growth in a cell viability assay.

U-87 MG = assay type: functional, cell-based, U-87MG ATCC; conditions: Homo sapiens;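 also: growth inhibition of the cells measured with a viability assay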
Description: SANGER: Inhibition of human U-87-MG cell growth in a cell viability assay.

KU812 cell line = assay type: functional, cell-based; conditions: Homo sapiens;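 also: growth inhibition of KU812 cells, read out with a cell viability assay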
Description: SANGER: Inhibition of human KU812 cell growth in a cell viability assay.

NCI-H1395 = assay type: functional, cell-based; conditions: Homo sapiens;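 also: cell viability assay read-out quantifying reduced proliferation of human NCI-H1395 cells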
Description: SANGER: Inhibition of human NCI-H1395 cell growth in a cell viability assay.

NY = assay type: functional, cell-based; conditions: Homo sapiens
Description: SANGER: Inhibition of human NY cell growth in a cell viability assay.

EOL1 = assay type: functional, cell-based; conditions: Homo sapiens;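 also: growth inhibition of EoL-1 cells, read out by a cell viability assay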
Description: SANGER: Inhibition of human EoL-1-cell cell growth in a cell viability assay.

NCI-H1155 = assay type: functional, cell-based; conditions: Homo sapiens;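 also: cell growth inhibition measured by a viability assay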
Description: SANGER: Inhibition of human NCI-H1155 cell growth in a cell viability assay.

QIMR-WIL = assay type: functional, cell-based; conditions: Homo sapiens
Description: SANGER: Inhibition of human QIMR-WIL cell growth in a cell viability assay.

SNU-5 = assay type: functional, cell-based; conditions: Homo sapiens
Description: SANGER: Inhibition of human NCI-SNU-5 cell growth in a cell viability assay.

RKO = assay type: functional, cell-based; conditions: Homo sapiens
Description: SANGER: Inhibition of human RKO cell growth in a cell viability assay.

REH = assay type: functional, cell-based; conditions: Homo sapiens
Description: SANGER: Inhibition of human REH cell growth in a cell viability assay.

769-P = assay type: functional, cell-based; conditions: Homo sapiens
Description: SANGER: Inhibition of human 769-P cell growth in a cell viability assay.

SK-LMS-1 = assay type: functional, cell-based; conditions: Homo sapiens
Description: SANGER: Inhibition of human SK-LMS-1 cell growth in a cell viability assay.

OE19 = assay type: functional, cell-based; conditions: Homo sapiens
Description: SANGER: Inhibition of human OE19 cell growth in a cell viability assay.

SMILES: C/C=C(/C)C(=O)O[C@H]1C(C)=C2[C@H]([C@@H]1OC(=O)CCCCCCC)[C@@](C)(OC(C)=O)C[C@H](OC(=O)CCC)[C@@]1(O)[C@H]2OC(=O)[C@@]1(C)O [THAPSIGARGIN]
- IC50 (HCE-T): 36.3 nM
- IC50 (CAS-1): 118 nM
- IC50 (NCI-H1304): 59.1 nM
- IC50 (EW-13): 2.31 nM
- IC50 (SF-539): 1.94 nM
- IC50 (CTV-1): 5.2 nM
- IC50 (LB2518-MEL): 17.3 nM
- IC50 (IST-SL1): 24.2 nM
- IC50 (KARPAS-45): 8.06 nM
- IC50 (SNB-75): 32.6 nM
- IC50 (NOMO-1): > 512 nM
- IC50 (DOHH-2): 22.3 nM
- IC50 (LB2241-RCC): 66 nM
- IC50 (CAL-12T): < 2 nM
- IC50 (ES5): > 512 nM
- IC50 (SCC-15): 1.12 nM
- IC50 (COLO-792): 59.6 nM
- IC50 (MZ2-MEL): 1.79 nM
- IC50 (ETK-1): < 2 nM
- IC50 (MFM-223): > 512 nM
- IC50 (TE-6): 17.8 nM
- IC50 (RS4-11): 1.3 nM
- IC50 (SW 954): 15.6 nM
- IC50 (OCI-AML2): 8.04 nM
- IC50 (SH-4): 17.8 nM
- IC50 (ML-2): 53.9 nM
- IC50 (CA46): 2.98 nM
- IC50 (LS-123): 6.23 nM
- IC50 (SK-N-FI): 88.2 nM
- IC50 (HCE-4): 4.25 nM
- IC50 (LOUCY): 29.9 nM
- IC50 (DMS-79): > 512 nM
- IC50 (KMOE-2): 82.9 nM
- IC50 (Ramos-2G6-4C10): 0.855 nM
- IC50 (NEC8): 11 nM
- IC50 (OS-RC-2): 24.3 nM
- IC50 (KG-1): 67.4 nM
- IC50 (TE-9): 13.3 nM
- IC50 (HT-144): 0.518 nM
- IC50 (KM12): 13.4 nM
- IC50 (GAK): 199 nM
- IC50 (NCI-H2228): 8 nM
- IC50 (GB-1): 114 nM
- IC50 (HH): 95.9 nM
- IC50 (HD-MY-Z): 17.5 nM
- IC50 (P30-OHK): 2.08 nM
- IC50 (C-33-A): 9.77 nM
- IC50 (GR-ST): 10.5 nM
- IC50 (UACC-257): 115 nM
- IC50 (DB): 2.55 nM
- IC50 (Detroit 562): 2.52 nM
- IC50 (MOLT-4): 39.5 nM
- IC50 (KNS-81-FD): > 512 nM
- IC50 (U-87 MG): 132 nM
- IC50 (KU812 cell line): 2.12 nM
- IC50 (NCI-H1395): 176 nM
- IC50 (NY): < 2 nM
- IC50 (EOL1): 24.2 nM
- IC50 (NCI-H1155): 285 nM
- IC50 (QIMR-WIL): > 512 nM
- IC50 (SNU-5): 91.4 nM
- IC50 (RKO): 1.61 nM
- IC50 (REH): 6.39 nM
- IC50 (769-P): 32.3 nM
- IC50 (SK-LMS-1): < 2 nM
- IC50 (OE19): 36.5 nM
